# Data published in publication PMC7084598, “Design, Synthesis, and Biological Evaluation of Two Series of Novel A-Ring Fused Steroidal Pyrazines as Potential Anticancer Agents” (International Journal of Molecular Sciences, 2020).
# Tests used:
# MCF-7 (breast carcinoma) = assay: CCK-8 antiproliferative assay, MCF-7; type: cell-based; details: Homo sapiens, MCF7, 48 h, CCK8, mean of three independent experiments, NA = no activity, read-out: Inhibitory Ratio (Mean% ± SD%) MCF-7
# Description: (§1) All the thirty-six target derivatives (5a–5f, 10a–10o, and 12a–12o) were screened for antiproliferative activities against three human cancer cell lines (MCF-7, PC-3, and HepG2) and cytotoxicity on a normal human cell (THLE-2) at the concentration of 20 μM by using the CCK8 assay.
# (§2) Thirty-six novel steroidal A-ring fused pyrazine hybrids were evaluated by Cell Counting Kit-8 (CCK-8) assays, to evaluate their in vitro antiproliferative activities on three human cancer cell lines and one normal cell line: MCF-7 (breast carcinoma), PC-3 (prostate carcinoma), HepG2 (liver hepatocellular carcinoma), and THLE-2 ([…]), with 5-fluorouracil as the positive control.
# (§3) Cells (3 × 10^3 cells per well) seeded into 96-well plates (Costar, Shanghai, China) were incubated with Ham’s F-12K containing various concentrations of steroidal pyrazines (5a–5f, 10a–10o, and 12a–12o) for 48 h at 37 °C and 5% COThen, 10 μL of CCK-8 reagent (Beyotime, Shanghai, China) dissolved in PBS (Phosphate buffered saline) was added per well, and continuously incubated at 37 °C for 1 h. Finally, the absorbance of samples taken from each well was measured on a microplate reader at 450 nm. The antiproliferative activities were expressed as inhibitory activity and IC50 values calculated using GraphPad Software 5.0 (GraphPad Software, San Diego, CA, USA), which were the mean values of three independent tests and are shown in Table 1 and Table 2, respectively. The formula used for cell inhibitory rates was (1 - sample absorption/vehicle absorption) × 100%.
# [1] = system: PC-3 (prostate carcinoma); assay: CCK-8 antiproliferative assay, PC-3; type: cell-based, human; details: for inhibition at 20 µM / IC50: Homo sapiens; for inhibition at 20 µM: 48 h, CCK8, mean of three independent experiments, NA = no activity, read-out: Inhibitory Ratio (Mean% ± SD%) PC-3; for IC50: CCK-8, 48 h, triplicate; for SI: Selectivity index = (IC50 of THLE-2)/(IC50 of PC-3): THLE-2 vs PC-3
# Description: as §1, §2, §3
# [2] = system: HepG2 (liver hepatocellular carcinoma); assay: CCK-8 antiproliferative assay, HepG2; type: cell-based; details: Homo sapiens, 48 h, CCK8, mean of three independent experiments, NA = no activity, read-out: Inhibitory Ratio (Mean% ± SD%) HepG2
# Description: as §1, §2, §3
# [3] = system: THLE-2 (normal human cells); assay: CCK-8 cytotoxicity on normal cells, THLE-2; type: cell-based; details: for inhibition at 20 µM: 48 h, CCK8, NA = no activity, read-out: Inhibitory Ratio (Mean% ± SD%) THLE-2; for IC50: CCK-8, 48 h
# Description: as §1, §2, §3
SMILES,inhibition at 20 µM (MCF-7 (breast carcinoma)) [%],inhibition at 20 µM [1] [%],inhibition at 20 µM [2] [%],inhibition at 20 µM [3] [%],IC50 [1] [µM],SI: Selectivity index = (IC50 of THLE-2)/(IC50 of PC-3) [1],IC50 [3] [µM],melting point [°C]
CC(O)C1CCC2C3CC=C4C(C)(C)c5nc6ccccc6nc5CC4(C)C3CCC12C (stereo not shown) [Compound 10b],9.95 ± 0.55,12.5 ± 12.9,7.24 ± 5.83,4.35 ± 2.27,,,,
COc1cccc(NC(=O)c2cnc3c(n2)C(C)(C)C2=CCC4C(CCC5(C)C(C(C)O)CCC45)C2(C)C3)c1 (stereo not shown) [Compound 12l],13.8 ± 2.32,26.9 ± 1.71,12 ± 1.67,,,,,
CC(O)C1CCC2C3CC=C4C(C)(C)c5nc(C(=O)Nc6ccccc6Cl)cnc5CC4(C)C3CCC12C (stereo not shown) [Compound 12h],,41.7 ± 4.79,21.9 ± 2.05,,,,,
CC(O)C1CCC2C3CC=C4C(C)(C)c5nc(C(=O)Nc6cccc(Cl)c6)cnc5CC4(C)C3CCC12C (stereo not shown) [Compound 12i],20.2 ± 0.52,35.9 ± 2.97,15.9 ± 2.93,,,,,
CC(O)C1CCC2C3CC=C4C(C)(C)c5nc6ccc([N+](=O)[O-])cc6nc5CC4(C)C3CCC12C (stereo not shown) [Compound 10m],14.7 ± 0.25,16 ± 0.57,18.2 ± 7.46,,,,,
CC(O)C1CCC2C3CC=C4C(C)(C)c5nc(C(=O)Nc6ccc(Cl)cc6)cnc5CC4(C)C3CCC12C (stereo not shown) [Compound 12j],24.9 ± 4.84,51.1 ± 1.02,23.1 ± 1.27,,,,,
COc1ccc2nc3c(nc2c1)C(C)(C)C1=CCC2C(CCC4(C)C(C(C)O)CCC24)C1(C)C3 (stereo not shown) [Compound 10l],41.6 ± 1.28,30 to 60,33.3 ± 1.13,22.2 ± 2.72,,,,
CC(O)C1CCC2C3CC=C4C(C)(C)c5nc6ccc(F)cc6nc5CC4(C)C3CCC12C (stereo not shown) [Compound 10c],3.85 ± 1.97,24.9 ± 2.12,,,,,,
CC(O)C1CCC2C3CC=C4C(C)(C)c5nc(C(=O)Nc6ccccc6)cnc5CC4(C)C3CCC12C (stereo not shown) [Compound 12a],,24.2 ± 0.94,12.5 ± 12.9,,,,,
CC1(C)C2=CCC3C(CC[C@@]4(C)C3CC[C@@H]4C(=O)O)[C@@]2(C)Cc2nc3cc(Br)ccc3nc21 (stereo partly shown) [Compound 5c],6.86 ± 7.46,20.7 ± 12.5,,12.5 ± 0.9,,,,
CC1(C)C2=CCC3C(CC[C@@]4(C)C3CC[C@@H]4C(=O)O)[C@@]2(C)Cc2nc3ccc(O)cc3nc21 (stereo partly shown) [Compound 5f],18.4 ± 13.1,,24.9 ± 2.3,,,,,
CC(O)C1CCC2C3CC=C4C(C)(C)c5nc(C(=O)Nc6ccccc6F)cnc5CC4(C)C3CCC12C (stereo not shown) [Compound 12e],3.28 ± 1.9,47 ± 3.47,17.6 ± 3.19,14 ± 1.47,,,,
CC(O)C1CCC2C3CC=C4C(C)(C)c5nc(C(=O)Nc6cccc(F)c6)cnc5CC4(C)C3CCC12C (stereo not shown) [Compound 12f],0.8 ± 3.31,33.2 ± 4.68,12.8 ± 4.26,,,,,
COc1ccc2nc3c(nc2c1)CC1(C)C(=CCC2C1CCC1(C)C(C(C)O)CCC21)C3(C)C (stereo not shown) [Compound 10k],11.2 ± 0.49,,29.3 ± 5.38,3.54 ± 2.16,,,,
Cc1ccc(NC(=O)c2cnc3c(n2)C(C)(C)C2=CCC4C(CCC5(C)C(C(C)O)CCC45)C2(C)C3)cc1 (stereo not shown) [Compound 12d],25 ± 3.43,22.6 ± 2.25,16.3 ± 3.72,18.2 ± 6.76,,,,
CC(O)C1CCC2C3CC=C4C(C)(C)c5nc(C(=O)NC6CCCCC6)cnc5CC4(C)C3CCC12C (stereo not shown) [Compound 12o],15.1 ± 1.25,,24.1 ± 2.34,,,,,
CC1(C)C2=CCC3C(CC[C@@]4(C)C3CC[C@@H]4C(=O)O)[C@@]2(C)Cc2nc3cc(O)ccc3nc21 (stereo partly shown) [Compound 5e],6.57 ± 0.09,,,,,,,
CC(O)C1CCC2C3CC=C4C(C)(C)c5nc6cc(F)ccc6nc5CC4(C)C3CCC12C (stereo not shown) [Compound 10d],21.2 ± 9.12,52.8 ± 0.86,22.4 ± 4.89,,,,,

SMILES,inhibition at 20 µM (MCF-7 (breast carcinoma)) [%],inhibition at 20 µM [1] [%],inhibition at 20 µM [2] [%],inhibition at 20 µM [3] [%],IC50 [1] [µM],SI: Selectivity index = (IC50 of THLE-2)/(IC50 of PC-3) [1],IC50 [3] [µM],melting point [°C]
COc1ccccc1NC(=O)c1cnc2c(n1)C(C)(C)C1=CCC3C(CCC4(C)C(C(C)O)CCC34)C1(C)C2 (stereo not shown) [Compound 12k],17.7 ± 1.01,32.9 ± 1.19,12.9 ± 0.43,4.71 ± 1.25,,,,
CC1(C)C2=CCC3C(CC[C@@]4(C)C3CC[C@@H]4C(=O)O)[C@@]2(C)Cc2nc3ccc(Br)cc3nc21 (stereo partly shown) [Compound 5d],12.4 ± 0.3,30 to 60,,2.39 ± 0.65,,,,
Cc1cccc(NC(=O)c2cnc3c(n2)C(C)(C)C2=CCC4C(CCC5(C)C(C(C)O)CCC45)C2(C)C3)c1 (stereo not shown) [Compound 12c],3.57 ± 1.69,19.9 ± 0.43,7.02 ± 3.1,,,,,
CC(O)C1CCC2C3CC=C4C(C)(C)c5nc6cc(Cl)ccc6nc5CC4(C)C3CCC12C (stereo not shown) [Compound 10f],23.9 ± 1.87,59.6 ± 1.29,32.6 ± 0.41,,,,,
CC(O)C1CCC2C3CC=C4C(C)(C)c5nc6cc(Br)ccc6nc5CC4(C)C3CCC12C (stereo not shown) [Compound 10h],21.2 ± 3.73,21.7 ± 1.27,13.1 ± 0.68,2.39 ± 0.07,,,,
CC1(C)C2=CCC3C(CC[C@@]4(C)C3CC[C@@H]4C(=O)O)[C@@]2(C)Cc2nc3ccccc3nc21 (stereo partly shown) [Compound 5b],,12.5 ± 12.9,7.24 ± 5.83,12.6 ± 1.22,,,,
"O=c1[nH]cc(F)c(=O)[nH]1 [Compound 5-FU, 5-fluorouracil, reference compound]",47.9 ± 1.67,35 ± 1.46,47.7 ± 1.3,51.8 ± 0.69,22.4 ± 0.41,0.58,12.9,
COc1ccc(NC(=O)c2cnc3c(n2)C(C)(C)C2=CCC4C(CCC5(C)C(C(C)O)CCC45)C2(C)C3)cc1 (stereo not shown) [Compound 12m],20 ± 2.33,30 to 60,20.3 ± 3.6,5.68 ± 1.9,,,,
CC(O)C1CCC2C3CC=C4C(C)(C)c5nc6cc([N+](=O)[O-])ccc6nc5CC4(C)C3CCC12C (stereo not shown) [Compound 10n],20 ± 2.56,16.6 ± 3.72,18.7 ± 2.69,,,,,
CC1(C)C2=CCC3C(CC[C@@]4(C)C3CC[C@@H]4C(=O)O)[C@@]2(C)Cc2nccnc21 (stereo partly shown) [Compound 5a],3.09 ± 1.05,25.1 ± 2.64,17.9 ± 1.16,,,,,270 to 292
CC(O)C1CCC2C3CC=C4C(C)(C)c5nc6ccc(Br)cc6nc5CC4(C)C3CCC12C (stereo not shown) [Compound 10g],,,11.7 ± 2.56,,,,,
CC(O)C1CCC2C3CC=C4C(C)(C)c5nc6ccc(Cl)cc6nc5CC4(C)C3CCC12C (stereo not shown) [Compound 10e],,44.8 ± 3.26,25.6 ± 2.51,,,,,
Cc1ccccc1NC(=O)c1cnc2c(n1)C(C)(C)C1=CCC3C(CCC4(C)C(C(C)O)CCC34)C1(C)C2 (stereo not shown) [Compound 12b],8.12 ± 3.17,20.8 ± 7.04,15.2 ± 5.61,5.15 ± 1.79,,,,
CC(O)C1CCC2C3CC=C4C(C)(C)c5nc6ccc(O)cc6nc5CC4(C)C3CCC12C (stereo not shown) [Compound 10i],17.9 ± 6.61,14.2 ± 0.87,,,,,,
CC(O)C1CCC2C3CC=C4C(C)(C)c5nc(C(=O)Nc6ccc(F)cc6)cnc5CC4(C)C3CCC12C (stereo not shown) [Compound 12g],33.4 ± 5.35,> 60,,17.6 ± 1.39,6.88 ± 0.04,2.14,14.7,
CC(O)C1CCC2C3CC=C4C(C)(C)c5nccnc5CC4(C)C3CCC12C (stereo not shown) [Compound 10a],4.99 ± 3.09,,6.2 ± 5.25,,,,,150 to 152
CC(O)C1CCC2C3CC=C4C(C)(C)c5nc6cc(O)ccc6nc5CC4(C)C3CCC12C (stereo not shown) [Compound 10j],18.6 ± 0.92,30 to 60,,,,,,
